Source: ChEMBL document CHEMBL2384931, “PAK1: A Therapeutic Target for Cancer Treatment” (ACS Med Chem Lett, 2013)

Key:
[1] = target: Serine/threonine-protein kinase PAK 3 (Homo sapiens, UniProt O75914); test: Inhibition of PAK3-mediated MEK1 phosphorylation at Ser298 in human EBC1 cells after 2 hrs by HTRF assay; assay type: cell-based; conditions: pooled result: one value given for 3 cell lines, strains, targets or settings
[2] = target: Serine/threonine-protein kinase PAK 1 (Homo sapiens, UniProt Q13153); test: Inhibition of human recombinant GST-tagged PAK1 kinase domain-mediated 5FAM-RRRLSFAEPG phosphorylation expressed in Sf9 cells preincubated for 10 mins prior to substrate addition measured after 30 mins by microfluidic mobility shift assay
Serine/threonine-protein kinase PAK 1, sequence (Q13153 whole entry, the tested form may be a part): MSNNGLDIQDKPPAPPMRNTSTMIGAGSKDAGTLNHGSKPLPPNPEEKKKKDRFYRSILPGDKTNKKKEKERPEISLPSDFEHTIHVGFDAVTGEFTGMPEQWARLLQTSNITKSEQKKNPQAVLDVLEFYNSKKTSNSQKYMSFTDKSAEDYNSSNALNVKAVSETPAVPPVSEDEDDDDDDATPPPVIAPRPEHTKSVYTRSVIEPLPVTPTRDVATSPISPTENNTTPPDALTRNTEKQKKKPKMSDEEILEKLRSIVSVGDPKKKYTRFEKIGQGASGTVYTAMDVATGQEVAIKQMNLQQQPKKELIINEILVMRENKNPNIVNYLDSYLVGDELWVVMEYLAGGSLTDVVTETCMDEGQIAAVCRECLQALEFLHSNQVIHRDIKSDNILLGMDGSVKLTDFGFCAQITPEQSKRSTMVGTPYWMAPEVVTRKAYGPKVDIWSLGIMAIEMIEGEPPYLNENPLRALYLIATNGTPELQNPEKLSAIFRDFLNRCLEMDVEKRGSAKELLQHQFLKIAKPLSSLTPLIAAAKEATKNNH

Serine/threonine-protein kinase PAK 3, sequence (O75914 whole entry, the tested form may be a part): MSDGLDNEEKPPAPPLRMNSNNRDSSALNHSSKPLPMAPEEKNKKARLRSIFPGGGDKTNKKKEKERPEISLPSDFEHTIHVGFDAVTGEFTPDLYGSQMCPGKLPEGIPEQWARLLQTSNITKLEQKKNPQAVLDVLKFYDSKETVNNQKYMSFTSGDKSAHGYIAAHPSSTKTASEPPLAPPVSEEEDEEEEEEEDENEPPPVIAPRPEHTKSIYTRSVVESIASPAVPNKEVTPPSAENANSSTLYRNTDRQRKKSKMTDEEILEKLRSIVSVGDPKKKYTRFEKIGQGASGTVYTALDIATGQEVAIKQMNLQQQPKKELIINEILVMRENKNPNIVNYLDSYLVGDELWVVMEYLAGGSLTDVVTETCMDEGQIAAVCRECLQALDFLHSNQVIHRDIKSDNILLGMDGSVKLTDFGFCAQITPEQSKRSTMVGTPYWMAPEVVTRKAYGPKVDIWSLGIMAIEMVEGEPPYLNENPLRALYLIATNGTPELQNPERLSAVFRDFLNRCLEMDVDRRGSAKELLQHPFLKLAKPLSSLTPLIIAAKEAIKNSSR

Row | SMILES | IC50 [1] [µM] | Ki [2] [µM]
1 | CC(CO)N(Cc1cc(F)cc2[nH]ncc12)c1nccc(Nc2cc(C3CC3)[nH]n2)n1 (stereo not given) | 0.0708 | –
2 | COCCN(Cc1cc(F)cc2[nH]ncc12)c1nccc(Nc2cc(C3CC3)[nH]n2)n1 | 0.0641 | –
3 | C[C@H](Nc1nccc(Nc2cc(C3CC3(F)F)[nH]n2)n1)c1ccc2[nH]cnc2c1 (stereo not given in full) | 0.244 | 0.00513
4 | C[C@H](Nc1nccc(Nc2cc(C3CCC3)[nH]n2)n1)c1ccc2[nH]ccc2c1 | 0.133 | –
